Measured values from PMC9069370, “Integrated Design of a Membrane‐Lytic Peptide‐Based Intravenous Nanotherapeutic Suppresses Triple‐Negative Breast Cancer” (Advanced Science, 2022).
Square brackets hold non-standard residues; d marks the D form. Peptide text beside a SMILES is read from it.

Columns and labels:
MCF‐10A = assay: cells; type: cell-based, human; conditions: for IC50: 72 h
Text: (§1) […], and MCF-10A cells were maintained in MEGM with supplements and growth factors bovine pituitary extract, hydrocortisone, human epidermal growth factor, insulin, and gentamicin/amphotericin-B.

HMLER‐shEcad = assay: cells; type: cell-based, human; conditions: 72 h
Text: as §1

HMLER = assay: cells; type: cell-based, human; conditions: 72 h
Text: as §1

U2OS = type: cell-based, human; conditions: 72 h
[1] = Tryptophan fluorescent binding assay; conditions: tryptophan fluorescence; 50 µM peptide, lipid titrated 0-5000 µM; phosphate buffered saline 1X, pH 7.4; values as lipid per peptide
Protocol: 50 µM ACP peptides and varied concentrations (concentrations: 0, 25, 50, 100, 150, 200, 250, 500, 1250, and 2500 µM) of POPC or POPC:POPG (3:1 ratio) large unilamellar vesicles were prepared in 10 mM phosphate buffer (pH 7.0). The solutions were measured after 1 h of incubation. Excitation was fixed at 280 nm (slit 9 nm) and emission was collected from 300 to 450 nm (slit 9 nm). The spectra were recorded using Cytation 5 Cell Imaging Multi‐Mode Reader from BioTek and were averaged by three scans.
Lipid Concentration-induced
Name Sequence† 50% Peptide Binding (L/P)
Extended Data Table 3 | Tryptophan binding assay. […]
peptide binding onto liposome. 50 µM peptides were fixed and incubated with titrated lipid (POPC vesicle […]
phosphate buffered saline (1X, pH 7.4). The lipid concentration that causes 50 % peptide binding was determined using tryptophan fluorescent binding assay and the values are shown as lipid per peptide.

[2] = ANTS/DPX liposome leakage assay; conditions: for Peptide Concentration-induced 50 % ANTS/DPX leakage at pH 4.8 (L/P), 3POPC/1POPG Vesicle / Peptide Concentration-induced 50 % ANTS/DPX leakage at pH 4.8 (L/P), POPC Vesicle / Peptide Concentration-induced 50 % ANTS/DPX leakage at pH 7.4 (L/P), 3POPC/1POPG Vesicle / Peptide Concentration-induced 50 % ANTS/DPX leakage at pH 7.4 (L/P), POPC Vesicle: 0.5 mM vesicles, peptide 0-20 µM, 3 h incubation, lipid per peptide; for Peptide Concentration-induced 50 % ANTS/DPX leakage at pH 4.8 (L/P), 3POPC/1POPG Vesicle / Peptide Concentration-induced 50 % ANTS/DPX leakage at pH 4.8 (L/P), POPC Vesicle: HCl-adjusted PBS 1X pH 4.8; for Peptide Concentration-induced 50 % ANTS/DPX leakage at pH 7.4 (L/P), 3POPC/1POPG Vesicle / Peptide Concentration-induced 50 % ANTS/DPX leakage at pH 7.4 (L/P), POPC Vesicle: PBS 1X pH 7.4, high ratio = more potent
Protocol: Vesicle preparation: 5 mM ANTS and 12.5 mM DPX were entrapped in 0.1 µm diameter extruded vesicles (either POPC or POPC/POPG at a ratio of 3:1) with lipids. Gel filtration chromatography of Sephadex G‐100 was used to remove external free ANTS/DPX from LUVs with entrapped contents. LUVs were diluted to 0.5 mM and used to measure the leakage activity by the addition of aliquots of ACPs. Leakage was measured after 3 h incubation. 10% Triton was used as the positive control to measure the maximum leakage of the vesicle. Fluorescence emission spectra were recorded using excitation and emission wavelength of 350 and 510 nm for ANTS/DPX using a BioTek Synergy H1 Hybrid Multi‐Mode Reader.
Peptide Concentration-induced Peptide Concentration-induced
Name Sequence† 50 % ANTS/DPX leakage 50 % ANTS/DPX leakage at pH 7.4 (L/P) at pH 4.8 (L/P)
POPC Vesicle 3POPC/1POPG Vesicle POPC Vesicle 3POPC/1POPG Vesicle […]
Extended Data Table 4 | Peptide concentration-induced 50 % ANTS/DPX liposome leakage. 0.5 mM POPC and 3POPC/1POPG vesicles were fixed and incubated with titrated peptide concentration (0, 0.02, […]
hydrochloric acid-adjusted phoshate buffered saline (1X, pH 4.8). The values are shown as lipid per

HEK293T = assay: cells; type: cell-based, human; conditions: 72 h

| IC50 (MCF‐10A) | IC50 (HMLER‐shEcad) | IC50 (HMLER) | IC50 (U2OS) | Lipid Concentration-induced 50% Peptide Binding (L/P), 3POPC/1POPG Vesicle [1] | Lipid Concentration-induced 50% Peptide Binding (L/P), POPC Vesicle [1] | Compound | Peptide Concentration-induced 50 % ANTS/DPX leakage at pH 4.8 (L/P), 3POPC/1POPG Vesicle [2] | Peptide Concentration-induced 50 % ANTS/DPX leakage at pH 4.8 (L/P), POPC Vesicle [2] | Peptide Concentration-induced 50 % ANTS/DPX leakage at pH 7.4 (L/P), 3POPC/1POPG Vesicle [2] | Peptide Concentration-induced 50 % ANTS/DPX leakage at pH 7.4 (L/P), POPC Vesicle [2] | IC50 (HEK293T) | selectivity for cancerous cells over non‐tumorigenic MCF‐10A (MCF‐10A; 2D culture, ratio of IC50) | change of ANTS/DPX dye leakage / liposome selectivity at pH 4.8 ([2]; pH = 4.8 compared with physiological pH, anionic versus neutral liposomes) |
| --- | --- | --- | --- | --- | --- | --- | --- | --- | --- | --- | --- | --- | --- |
| 7.05 ± 0.21 µM | 2.8 ± 0.28 µM | 3.45 ± 0.07 µM | 21.1 ± 3.01 µM | 0.46 L/P | 10.00 L/P | CC(C)C[C@H](NC(=O)CN)C(=O)N[C@@H](CC(C)C)C(=O)N[C@@H](CC(=O)O)C(=O)N[C@@H](CC(C)C)C(=O)N[C@@H](CC(C)C)C(=O)N[C@@H](CCCCN)C(=O)N[C@@H](CC(C)C)C(=O)N[C@@H](CC(C)C)C(=O)N[C@@H](CC(C)C)C(=O)N[C@@H](Cc1c[nH]cn1)C(=O)N[C@@H](C)C(=O)N[C@@H](C)C(=O)NCC(=O)N[C@@H](Cc1c[nH]c2ccccc12)C(N)=O [DKH] (H-GLLDLLKLLLHAAGW-NH2) | 58 L/P | 41 L/P | 274 L/P | 614 L/P | 6.15 ± 1.34 µM | – | – |
| 1.37 ± 0.24 µM | 1.35 ± 0.4 µM | 1.57 ± 0.24 µM | 9.65 ± 1.2 µM | 1.70 L/P | 1.25 L/P | CC(C)C[C@H](NC(=O)CN)C(=O)N[C@@H](CC(C)C)C(=O)N[C@@H](CCCCN)C(=O)N[C@@H](CC(C)C)C(=O)N[C@@H](CC(C)C)C(=O)N[C@@H](CCCCN)C(=O)N[C@@H](CC(C)C)C(=O)N[C@@H](CC(C)C)C(=O)N[C@@H](CC(C)C)C(=O)N[C@@H](CCCCN)C(=O)N[C@@H](C)C(=O)N[C@@H](C)C(=O)NCC(=O)N[C@@H](Cc1c[nH]c2ccccc12)C(N)=O [KKK] (H-GLLKLLKLLLKAAGW-NH2) | 81 L/P | 156 L/P | 115 L/P | 1369 L/P | 3.7 ± 0.14 µM | – | – |
| – | 2.05 ± 0.21 µM | – | 49.4 ± 13.3 µM | 0.20 L/P | 0.20 L/P | CC(C)C[C@H](NC(=O)CN)C(=O)N[C@@H](CC(C)C)C(=O)N[C@@H](CCCCN)C(=O)N[C@@H](CC(C)C)C(=O)N[C@@H](CC(C)C)C(=O)N[C@@H](CCC(=O)O)C(=O)N[C@@H](CC(C)C)C(=O)N[C@@H](CC(C)C)C(=O)N[C@@H](CC(C)C)C(=O)N[C@@H](CCC(=O)O)C(=O)N[C@@H](C)C(=O)N[C@@H](C)C(=O)NCC(=O)N[C@@H](Cc1c[nH]c2ccccc12)C(N)=O [KEE] (H-GLLKLLELLLEAAGW-NH2) | 108 L/P | 97 L/P | 657 L/P | 626 L/P | 11.1 ± 1.84 µM | > 25 fold | no increase in selectivity at low pH |
| 0.57 ± 0.01 µM | 0.36 µM | 0.44 ± 0.1 µM | 5.84 ± 0.04 µM | – | – | CC(C)C[C@@H](NC(=O)CN)C(=O)N[C@H](CC(C)C)C(=O)N[C@H](CC(=O)O)C(=O)N[C@H](CC(C)C)C(=O)N[C@H](CC(C)C)C(=O)N[C@H](CCC(=O)O)C(=O)N[C@H](CC(C)C)C(=O)N[C@H](CC(C)C)C(=O)N[C@H](CC(C)C)C(=O)N[C@H](CCCCN)C(=O)N[C@H](C)C(=O)N[C@H](C)C(=O)NCC(=O)N[C@H](Cc1c[nH]c2ccccc12)C(N)=O [d-DEK] (H-G[dL][dL][dD][dL][dL][dE][dL][dL][dL][dK][dA][dA]G[dW]-NH2) | – | – | – | – | 3.28 ± 0.21 µM | – | – |
